Measured values: US20250115598A1 (Anaxis Pharma Pty Ltd, priority 2021, published 2025)
pIC50, pKd: −log10 of the molar value.

Columns and labels:
[1] = system: Immortalised Mouse Dermal Fibroblasts (MDFs); assay: Cellular assay: inhibition of TSI induced necroptosis, CellTitre-Glo viability; details: Mus musculus, Fibroblast; MDF, 3 hours TSI cocktail, Table 27; read-out: Inhibition of TSI-induced necroptosis (IC50 cell-based assay) in MDF
How it was run: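 Necroptosis induced for 3 h with TSI: rhTNF 100 ng/ml, Smac mimetic 500 nM, caspase inhibitor IDN-6556 10 μM. Mouse dermal fibroblasts had received compound (36 μM top, ten three-fold steps) 30 min beforehand. ATP-based viability scaled between untreated and TSI-only wells; IC50 taken as 4-parameter curve inflection.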

human MLKL (full length) = human MLKL (full length) (Homo sapiens (Human), UniProt Q8NB16); assay: KINOMEscan binding assay, human MLKL (full length); details: hMLKL, Table 25; read-out: MLKL (KD)
Sequence of human MLKL (full length) (Q8NB16 whole entry): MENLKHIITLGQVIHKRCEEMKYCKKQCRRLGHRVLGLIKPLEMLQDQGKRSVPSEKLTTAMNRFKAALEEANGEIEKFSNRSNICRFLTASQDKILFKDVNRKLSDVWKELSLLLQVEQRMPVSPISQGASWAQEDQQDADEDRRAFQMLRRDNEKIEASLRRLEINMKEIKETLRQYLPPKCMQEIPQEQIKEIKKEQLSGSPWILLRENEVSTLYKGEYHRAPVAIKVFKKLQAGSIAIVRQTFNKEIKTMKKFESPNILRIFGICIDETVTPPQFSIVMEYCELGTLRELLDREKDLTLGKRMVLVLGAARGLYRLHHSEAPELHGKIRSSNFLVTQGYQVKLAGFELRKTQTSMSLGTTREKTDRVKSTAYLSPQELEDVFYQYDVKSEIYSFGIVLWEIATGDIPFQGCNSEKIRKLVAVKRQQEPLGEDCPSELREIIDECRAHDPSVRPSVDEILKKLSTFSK
How it was run: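 Tagged kinase + immobilized ligand beads + compound; eluted kinase quantified by qPCR. Kinase source: T7 phage lysate (BL21-derived E. coli, 32 °C) or HEK-293 with DNA tag. 11-pt 3-fold series, 1% DMSO, top 30,000 nM (most). Hill fit, slope −1 → Kd.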

endogenous MLKL in MDF = endogenous MLKL in MDF (Mus musculus (Mouse), UniProt Q9D2Y4); assay: Degradation assay: endogenous MLKL in MDF (western blot); details: MDF cells, 24 h incubation with compound, MLKL adjusted for loading with GAPDH, normalized to DMSO only control, read-out: Degradation of endogenous MLKL in MDF (DC50 cell-based assay)
Sequence of endogenous MLKL in MDF (Q9D2Y4 whole entry): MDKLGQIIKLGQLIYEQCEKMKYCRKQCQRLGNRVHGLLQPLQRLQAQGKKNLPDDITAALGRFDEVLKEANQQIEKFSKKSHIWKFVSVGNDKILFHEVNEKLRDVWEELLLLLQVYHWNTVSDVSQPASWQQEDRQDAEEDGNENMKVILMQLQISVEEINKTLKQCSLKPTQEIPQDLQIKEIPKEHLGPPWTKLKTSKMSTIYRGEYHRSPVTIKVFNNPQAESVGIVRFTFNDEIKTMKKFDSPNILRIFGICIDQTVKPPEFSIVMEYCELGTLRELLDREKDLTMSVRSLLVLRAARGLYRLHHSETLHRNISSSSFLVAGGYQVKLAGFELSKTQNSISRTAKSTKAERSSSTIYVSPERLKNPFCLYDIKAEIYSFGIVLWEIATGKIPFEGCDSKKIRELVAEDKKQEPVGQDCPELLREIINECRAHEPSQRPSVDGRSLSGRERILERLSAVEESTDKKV
How it was run: (§1)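 Western blot band intensity of MLKL, adjusted to GAPDH loading and normalized to DMSO-only wells, gave percent degradation. Compound exposure lasted 24 h at final concentrations of 10–0.016 μM in 1:5 steps, in mouse dermal fibroblasts or human U937 cells.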

endogenous MLKL in U937 = endogenous MLKL in U937 (Homo sapiens (Human), UniProt Q8NB16); assay: Degradation assay: endogenous MLKL in U937 (western blot); details: U937, 24 h incubation, read-out: Degradation of endogenous MLKL in U937 (DC50 cell-based assay)
Sequence of endogenous MLKL in U937 (Q8NB16 whole entry): as the sequence (Q8NB16 whole entry) above
How it was run: as §1

| SMILES | pKd (human MLKL (full length)) | DC50 (endogenous MLKL in MDF) [µM] | DC50 (endogenous MLKL in U937) [µM] | pIC50 [1] |
| --- | --- | --- | --- | --- |
| C[C@H](Oc1cc(-c2nn(C)c3c(-c4cnn(C5CCN(C(=O)c6ccc(CNc7cccc8c7C(=O)N(C7CCC(=O)NC7=O)C8=O)cc6)CC5)c4)cnc(N)c23)ccc1NS(=O)(=O)C(F)F)c1ccc(F)cc1 (stereo partly drawn) [Compound 1093, N-{4-[4-amino-7-(1-{1-[4-({[2-(2,6-dioxopiperidin-3-yl)-1,3-dioxo-2,3-dihydro-1H-isoindol-4-yl]amino}methyl)benzoyl]piperidin-4-yl}-1H-pyrazol-4-yl)-1-methyl-1H-pyrazolo[4,3-c]pyridin-3-yl]-2-[(1S)-1-(4-fluorophenyl)ethoxy]phenyl}-1,1-difluoromethanesulfonamide] | 6.00 to 8.00 | < 1 | < 1 | > 6.00 |
| C[C@H](Oc1cc(-c2nn(C)c3c(-c4cnn(C5CCN(Cc6cccc(CNc7cccc8c7C(=O)N(C7CCC(=O)NC7=O)C8=O)c6)CC5)c4)cnc(N)c23)ccc1NS(=O)(=O)C(F)F)c1ccc(F)cc1 (stereo partly drawn) [Compound 1095, N-(4-{4-amino-7-[1-(1-{[3-{{[2-(2,6-dioxopiperidin-3-yl)-1,3-dioxo-2,3-dihydro-1H-isoindol-4-yl]amino}methyl)phenyl]methyl}piperidin-4-yl)-1H-pyrazol-4-yl]-1-methyl-1H-pyrazolo[4,3-c]pyridin-3-yl}-2-[(1S)-1-(4-fluorophenyl)ethoxy]phenyl)-1,1-difluoromethane-sulfonamide] | 6.00 to 8.00 | < 1 | < 1 | > 6.00 |
| Cn1nc(-c2ccc(NS(=O)(=O)C(F)F)c(F)c2)c2c(N)ncc(-c3cnn(C4CCN(C(=O)CCC5CCN(c6cccc7c6C(=O)N(C6CCC(=O)NC6=O)C7=O)CC5)CC4)c3)c21 (stereo not drawn) [Compound 1113, N-[4-(4-amino-7-{1-[1-(3-{1-[2-(2,6-dioxopiperidin-3-yl)-1,3-dioxo-2,3-dihydro-1H-isoindol-4-yl]piperidin-4-yl}propanoyl)piperidin-4-yl]-1H-pyrazol-4-yl}-1-methyl-1H-pyrazolo[4,3-c]pyridin-3-yl}-2-fluorophenyl]-1,1-difluoromethanesulfonamide] | > 8.00 | < 1 | < 1 | 5.00 to 6.00 |
| C[C@H](Oc1cc(-c2nn(C)c3c(-c4cnn(C5CCN(Cc6ccc(CNc7cccc8c7C(=O)N(C7CCC(=O)NC7=O)C8=O)cc6)CC5)c4)cnc(N)c23)ccc1NS(=O)(=O)C(F)F)c1ccc(F)cc1 (stereo partly drawn) [Compound 1115, N-(4-{4-amino-7-[1-(1-{[4-({[2-(2,6-dioxopiperidin-3-yl)-1,3-dioxo-2,3-dihydro-1H-isoindol-4-yl]amino}methyl)phenyl]methyl}piperidin-4-yl)-1H-pyrazol-4-yl]-1-methyl-1H-pyrazolo[4,3-c]pyridin-3-yl}-2-[(1S)-1-(4-fluorophenyl)ethoxy]phenyl)-1,1-difluoromethanesulfonamide] | 6.00 to 8.00 | < 1 | < 1 | > 6.00 |
| C[C@H](Oc1cc(-c2nn(C)c3c(-c4cnn(C5CCC(C(=O)N6CCN(c7cccc8c7C(=O)N(C7CCC(=O)NC7=O)C8=O)CC6)N(C)C5)c4)cnc(N)c23)ccc1NS(=O)(=O)C(F)F)c1ccc(F)cc1 (stereo partly drawn) [Compound 1121, N-(4-{4-amino-7-[1-(6-{4-[2-(2,6-dioxopiperidin-3-yl)-1,3-dioxo-2,3-dihydro-1H-isoindol-4-yl]piperazine-1-carbonyl}-1-methylpiperidin-3-yl)-1H-pyrazol-4-yl]-1-methyl-1H-pyrazolo[4,3-c]pyridin-3-yl}-2-[(1S)-1-(4-fluorophenyl)ethoxy]phenyl)-1,1-difluoromethanesulfonamide] | > 8.00 | < 1 | < 1 | > 6.00 |

Second part, led by results:

| pKd (human MLKL (full length)) | DC50 (endogenous MLKL in MDF) [µM] | DC50 (endogenous MLKL in U937) [µM] | SMILES | pIC50 [1] |
| --- | --- | --- | --- | --- |
| > 8.00 | 1 to 10 | < 1 | C[C@H](Oc1cc(-c2nn(C)c3c(-c4cnn(C5CCN(C(=O)COc6ccc7c(c6)C(=O)N(C6CCC(=O)NC6=O)C7=O)CC5)c4)cnc(N)c23)ccc1NS(=O)(=O)C(F)F)c1ccc(F)cc1 (stereo partly drawn) [Compound 1085, N-[4-(4-amino-7-{1-[1-(2-{[2-(2,6-dioxopiperidin-3-yl)-1,3-dioxo-2,3-dihydro-1H-isoindol-5-yl]oxy}acetyl)piperidin-4-yl]-1H-pyrazol-4-yl}-1-methyl-1H-pyrazolo[4,3-c]pyridin-3-yl)-2-[(1 S)-1-(4-fluorophenyl)ethoxy]phenyl]-1,1-difluoromethanesulfonamide] | > 6.00 |
| > 8.00 | < 1 | < 1 | CCS(=O)(=O)Nc1ccc(-c2nn(C)c3c(-c4cnn(C5CCN(C(=O)CCC6CCN(c7cccc8c7C(=O)N(C7CCC(=O)NC7=O)C8=O)CC6)CC5)c4)cnc(N)c23)cc1F (stereo not drawn) [Compound 1088, N-[4-(4-amino-7-{1-[1-(3-{1-[2-(2,6-dioxopiperidin-3-yl)-1,3-dioxo-2,3-dihydro-1H-isoindol-4-yl]piperidin-4-yl}propanoyl)piperidin-4-yl]-1H-pyrazol-4-yl}-1-methyl-1H-pyrazolo[4,3-c]pyridin-3-yl}-2-fluorophenyl]ethane-1-sulfonamide] | > 6.00 |
| > 8.00 | < 1 | < 1 | C[C@H](Oc1cc(-c2nn(C)c3c(-c4cnn(C5CCN(CCCN6CCN(C(=O)COc7ccc8c(c7)C(=O)N(C7CCC(=O)NC7=O)C8=O)CC6)CC5)c4)cnc(N)c23)ccc1NS(=O)(=O)C(F)F)c1ccc(F)cc1 (stereo partly drawn) [Compound 1091, N-(4-{4-amino-7-[1-(1-{3-[4-(2-{[2-(2,6-dioxopiperidin-3-yl)-1,3-dioxo-2,3-dihydro-1H-isoindol-5-yl]oxy}acetyl)piperazin-1-yl]propyl}piperidin-4-yl)-1H-pyrazol-4-yl]-1-methyl-1H-pyrazolo[4,3-c]pyridin-3-yl}-2-[(1S)-1-(4-fluorophenyl)ethoxy]phenyl)-1,1-difluoromethanesulfonamide] | > 6.00 |
| > 8.00 | < 1 | < 1 | C[C@H](Oc1cc(-c2nn(C)c3c(-c4cnn(C5CCN(C(=O)CC(=O)N6CCN(c7cccc8c7C(=O)N(C7CCC(=O)NC7=O)C8=O)CC6)CC5)c4)cnc(N)c23)ccc1NS(=O)(=O)C(F)F)c1ccc(F)cc1 (stereo partly drawn) [Compound 1098, N-[4-(4-amino-7-{1-[1-(3-{4-[2-(2,6-dioxopiperidin-3-yl)-1,3-dioxo-2,3-dihydro-1H-isoindol-4-yl]piperazin-1-yl}-3-oxopropanoyl)piperidin-4-yl]-1H-pyrazol-4-yl}-1-methyl-1H-pyrazolo[4,3-c]pyridin-3-yl)-2-[(1S)-1-(4-fluorophenyl)ethoxy]phenyl]-1,1-difluoromethanesulfonamide] | 5.00 to 6.00 |
| > 8.00 | 1 to 10 | < 1 | C[C@H](Oc1cc(-c2nn(C)c3c(-c4cnn(C5CCN(CCCN6CCN(C(=O)COc7cccc8c7C(=O)N(C7CCC(=O)NC7=O)C8=O)CC6)CC5)c4)cnc(N)c23)ccc1NS(=O)(=O)C(F)F)c1ccc(F)cc1 (stereo partly drawn) [Compound 1099, N-(4-{4-amino-7-[1-(1-{3-[4-(2-{[2-(2,6-dioxopiperidin-3-yl)-1,3-dioxo-2,3-dihydro-1H-isoindol-4-yl]oxy}acetyl)piperazin-1-yl]propyl}piperidin-4-yl)-1H-pyrazol-4-yl]-1-methyl-1H-pyrazolo[4,3-c]pyridin-3-yl}-2-[(1S)-1-(4-fluorophenyl)ethoxy]phenyl)-1,1-difluoromethanesulfonamide] | 5.00 to 6.00 |
| > 8.00 | < 1 | 1 to 10 | C[C@H](Oc1cc(-c2nn(C)c3c(-c4cnn(C5CCN(C[C@H]6C[C@H](Nc7cccc8c7C(=O)N(C7CCC(=O)NC7=O)C8=O)C6)CC5)c4)cnc(N)c23)ccc1NS(=O)(=O)C(F)F)c1ccc(F)cc1 (stereo partly drawn) [Compound 1108, N-(4-{4-amino-1-methyl-7-[1-(1-{[(trans)-3-{[2-(2,6-dioxopiperidin-3-yl)-1,3-dioxo-2,3-dihydro-1H-isoindol-4-yl]amino}cyclobutyl]methyl}piperidin-4-yl)-1H-pyrazol-4-yl]-1H-pyrazolo[4,3-c]pyridin-3-yl}-2-[(1S)-1-(4-fluorophenyl)ethoxy]phenyl)-1,1-difluoromethane-sulfonamide] | > 6.00 |
| > 8.00 | < 1 | < 1 | C[C@H](Oc1cc(-c2nn(C)c3c(C#CC(=O)N[C@H]4C[C@H](Nc5cccc6c5C(=O)N(C5CCC(=O)NC5=O)C6=O)C4)cnc(N)c23)ccc1NS(=O)(=O)C(F)F)c1ccc(F)cc1 (stereo partly drawn) [Compound 1109, 3-{4-amino-3-[4-(difluoromethanesulfonamido)-3-[(1S)-1-(4-fluorophenyl)ethoxy]phenyl]-1-methyl-1H-pyrazolo[4,3-c]pyridin-7-yl}-N-[(trans)-3-{[2-(2,6-dioxopiperidin-3-yl)-1,3-dioxo-2,3-dihydro-1H-isoindol-4-yl]amino}cyclobutyl]prop-2-ynamide] | 5.00 to 6.00 |
